The record followed here is article PMC11187542, “Identification of fragments targeting SMYD3 using highly sensitive kinetic and multiplexed biosensor-based screening” (RSC Medicinal Chemistry, 2024).

Where “and” joins values, the source holds several entries; their conditions need not be identical. Equal values may be shown once.

The target in assay [1] is T1, SMYD3 (Homo sapiens, UniProt Q9H7B4).
T1 construct: Full length recombinant SMYD3 was produced as previously reported; made in house; host or cells: E. coli BL21(DE3), in some cases Rosetta 2
T1 sequence (Q9H7B4 1-428): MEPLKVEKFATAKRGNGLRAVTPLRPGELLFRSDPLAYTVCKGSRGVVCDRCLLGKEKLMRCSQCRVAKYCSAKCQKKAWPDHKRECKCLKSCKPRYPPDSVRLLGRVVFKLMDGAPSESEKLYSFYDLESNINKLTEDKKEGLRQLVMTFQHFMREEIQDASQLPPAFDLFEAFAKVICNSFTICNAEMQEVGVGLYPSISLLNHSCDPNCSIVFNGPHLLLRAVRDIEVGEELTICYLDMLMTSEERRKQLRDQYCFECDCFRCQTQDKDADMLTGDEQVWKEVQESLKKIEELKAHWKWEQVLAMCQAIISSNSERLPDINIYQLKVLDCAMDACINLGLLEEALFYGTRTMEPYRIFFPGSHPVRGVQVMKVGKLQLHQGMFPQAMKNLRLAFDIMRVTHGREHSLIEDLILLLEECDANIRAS
In words: X-ray crystallography of SMYD3-fragment complexes (co-crystallization and soaking). Also noted: key to XRC: success or failure of crystallization in complex with SMYD3: The success (+) or failure (−) of crystallization in complex with SMYD3; The success (+) or failure (−) of crystallization in complex with SMYD3. From the text:
To identify binding sites and binding modes, the fragment hits (Table 1) were used in both co-crystallization and soaking experiments to obtain SMYD3-fragment co-crystals for X-ray crystallographic analyses. Diffraction data of 1.6–1.9 Å maximum resolution were obtained for four fragments (Fig. 5). For data collection and refinement statistics, see ESI, ^† Table S1.
Four new sites were thus identified.
Polder (F0–Fc) maps (Fig. 5, right) were generated to establish whether the observed electron density features were more likely to represent background noise or to belong to bound fragments. These omit maps are generated upon exclusion of the ligand and surrounding solvent from the model, which aids in visualizing weak densities. […] For fragments FL01507, FL08580 and FL08619, a comparison of the maps obtained after refinement with a bound fragment with maps obtained upon their replacement with either glycerol or acetate, which were present in the crystallization or cryo-protectant solutions, respectively, was required.
8 mg mL^−1 of SMYD3 in storage buffer (TBS buffer containing 2 mM DTT) was pre-incubated for 4–8 hours with 5 mM of a respective fragment hit compound and 10% (v/v) DMSO. Subsequently, 1 μL of this solution was mixed with an equal volume of reservoir solution (100 mM Tris, 100 mM magnesium acetate, 15–17% PEG3350, pH 8.25–8.75) to create the drops for co-crystallization by hanging drop vapour diffusion performed at 20 °C. Needle-like co-crystals nucleated within 12 h of equilibration against the reservoir. In addition, crystals of SMYD3 obtained in ligand-free crystallization setups were soaked with fragment solution prior to freezing. All crystals were cryo-protected via brief immersion in reservoir solution supplemented with 10% (v/v) glycerol.
Diffraction data were collected at beamline ID23-1 of the European Synchrotron Radiation Facility (ESRF, Grenoble, France). Data were indexed, auto-processed, scaled and merged on-site using the implemented data processing routines and software. Fragment-associated electron density features were identified upon data analysis with the Pipedream system (version 1.4.0, Global Phasing Ltd, Cambridge, United Kingdom), which includes data processing with autoPROC,[14] molecular replacement with Phaser,[15] structure refinement with BUSTER version 2.10.4 (Global Phasing Ltd, Cambridge, United Kingdom), automated ligand fitting with Rhofit (Global Phasing Ltd, Cambridge, United Kingdom) and BUSTER post-refinement.[16] Refinement was done with Phenix,[17] and model building with Coot.[18] (F0–Fc) difference density maps for models, from which ligand atoms and surrounding water molecules were removed, were generated using Phenix.

Assay [2] has as its target T1, SMYD3. Kind of assay: GCI biosensor multi cycle kinetic confirmation of hits. The format is binding. The note with it: two-fold serial dilution starting at 250 μM, 15 °C, global fit 1:1 model. As for the experimental part:
Selected screening hits were also re-tested by conventional multi cycle kinetic analysis in order to confirm the interactions (some compounds were no longer available). Two variants of the GCI biosensor assay were set up, using different immobilisation levels, to allow the confirmation of hits over a broad range of affinities. […] The kinetics varied for the selected hits (ESI, ^† Fig. S2). All hits were not confirmed (ESI, ^† Fig. S1b).
All interaction kinetic experiments were conducted with a GCI–flow-based biosensor (WAVEdelta, Creoptix AG/Malvern Panalytical) and PCH WAVEchip (Creoptix AG/Malvern Panalytical) sensor chips. The sensor chips were conditioned using injections of borate buffer (10 mM sodium tetraborate pH 8.5, 1 M NaCl). The running buffer composition, if not otherwise stated, was TBS buffer (50 mM Tris, 150 mM NaCl, 0.5 mM TCEP, 0.05% Tween 20, 1% DMSO, pH 8). SMYD3 was diluted to the desired concentration in 10 mM bis-Tris (pH 7.0) and amine coupled to the sensor surface of the PCH sensor chip. The sensor chip was functionalized at 25 °C by immobilising SMYD3 with EDC and NHS (Xantec) using an injection time of 420 s and a flow rate of 10 μL min^−1. The immobilisation levels ranged from 5000 pg mm^−2 to 18 500 pg mm^−2 surface mass to enable analysis of fragments spanning a broad range of affinities. After immobilization, the surface was deactivated with a running buffer containing 50 mM Tris for 420 s. The GCI data referencing and analysis were performed using WAVEcontrol V4.5 (Creoptix AG).
Kinetic measurements with controls and fragments were performed at 15 °C. Analysis of controls and follow up of hits was done using the multi cycle kinetic (MCK) injection of a concentration series for the same time, with a two-fold serial dilution starting at 250 μM for each compound. Solvent correction was performed ranging from 0.5–1.8% DMSO. Blank samples of the running buffer, 1× TBS (50 mM Tris, 150 mM NaCl, 0.5 mM TCEP, 0.05% Tween 20, 1% DMSO, pH 8), were injected during the measurements every fifth cycle. The experimental design illustrated in Fig. 1 was used for the screening against all four surfaces. The sensorgrams were adjusted to account for solvent correction and blank subtraction. Kinetic fitting was performed with the Direct Kinetics engine of WAVEcontrol software V4.5 (Creoptix AG) with a suitable fitting model.
FL06268 Superstoichiometric and
Figure 1. Examples of sensorgrams from multicycle kinetic experiments with initial fragment hits and SMYD3. A)
Fragments for which crystal structures of the complex with SMYD3 were obtained. A global fit of the sensorgrams
crystal structures were not obtained. […]

With `Cn1cnc(S(N)(=O)=O)c1` [FL06268], the “XRC: success or failure of crystallization in complex with SMYD3” value in assay [1] (5 mM fragment co-crystallization or soaking) was “(+)”. The “Site (binding site in SMYD3 crystal structure)” value in assay [1] (four sites defined (1–4, Fig. 6) plus active site) is “both the active site (green surface) and site 2 and 2 + active”. The “Outcome of multicycle kinetic experiment (sensorgram assessment)” value in assay [2] is recorded as “Superstoichiometric”.
